Test results reported in US6162799A, “Pesticidal compounds” (BTG International Limited, priority 1995, dated 2000).
Values after ≈ are worked out from the molar mass of the structure shown. Read-outs that look alike come from different tables or passages of the source.

Assays:
Format in all cases: in vivo
Bemisia tabaci = test: Film/vial test on whitefly (BT), susceptible strain SUD-S; settings: 48 h
Protocol: (§1) Pesticidal activity was assessed against houseflies, mustard beetles, mites and whitefly using the following methods.
Whitefly (BT) (Bemisia tabaci)
Acetone solutions (0.100 ml) of the test compounds were placed in 10 ml glass vials and evaporated with rotation to deposit a film of the compound. Thirty adult whiteflies were placed inside the vial, then after 60 minutes, the treated insects were transferred onto untreated cotton leaf discs which were kept moist on a bed of agar gel. The temperature was maintained at 25° C. and mortality assessed after 48 hours. Three replicates were used at each of 5 to 7 dose levels per compound. LC50 values were calculated by using a computer software package ("Polo-PC" available from LeOra Software, Berkeley, Calif.). (See M. R. Cahill and B. Hackett in Proceedings Brighton Crop Protection Conference, 1992). The test was carried out using a susceptible strain of whitefly (SUD-S) which was collected in Sudan in 1978 from cotton.
(§2) The values given are LD50 (μg/insect) or LC50 (ppm solution of test compound) unless otherwise specified.

Tetranychus urticae = test: Immersion test on mites (TU), susceptible strain GSS; settings: 72 h
Protocol: as §1
Mites (TU) (Tetranychus urticae)
25 adult female mites were immersed in 35 μl of a solution of the test compound in a 1:4 acetone-water mixture for 30 seconds. The treated insects were maintained at 21°±2° C. and kill was assessed 72 hours after treatment. […] Three replicates of 25 mites each were used at each dose rate and 5 or 6 dose rates were used per compound under test. LC50 values were calculated in ppm of the solution of the test compound per insect. The test was carried out using a susceptible strain of mites (GSS) supplied by Schering, AG, Berlin.
as §2

Musca domestica = test: Topical test on houseflies (MD); settings: for MD (LD50): houseflies, topical on thorax, kill assessed 24 and 48 h
Protocol: as §1
Houseflies (MD) (Musca domestica)
Female flies were treated on the thorax with a one microliter drop of test compound dissolved in acetone. Two replicates of 15 flies were used at each dose rate and 6 dose rates were used per compound under test. After treatment, the flies were maintained at a temperature of 20°±1° C. and kill was assessed 24 and 48 hours after treatment. LD50 values were calculated in micrograms of test compound per fly (see Sawicki et al., Bulletin of the World Health Organisation, 35, 893 (1966) and Sawicki et al., Entomologia and Exp. Appli 10, 253, (1967).
as §2

Phaedon cochleariae Fab = test: Topical test on mustard beetles (PC); settings: for PC LD50 (comparative examples): Table 7; for PC (LD50): mustard beetles, topical, 48 h
Protocol: as §1
Mustard beetles (PC) (Phaedon cochleariae Fab)
A one microliter drop of an acetone solution of the test compound was applied ventrally to adult mustard beetles using a micro drop applicator. The treated insects were maintained for 48 hours after which time kill was assessed. Two replicates each of 20 to 25 mustard beetles were used at each dose level and 5 dose levels were treated comparably. LD50 values were calculated as for houseflies.
as §2

Aphis gossypiae = test: Aphicidal activity, aphid-dip; settings: strain 81-171B, read-out: Aphid-dip result, % kill A.G. 81-171B
Protocol: (§3) Activity against resistant (R) and susceptible (S) strains of aphid (Myzus persicae) and Aphis gossypiae was assessed using the following two methods.
(§4) Entrapment rings of fluon were painted halfway up the inside of 4 cm lengths of glass tubing (1.5 cm diameter), and squares of insect-proof gauze were attached to one end of each tube by elastic bands. Fifteen apterous adults were then gently transferred into the tubes using a sable-hair brush, and the tube sealed with a second gauze square.
(§5) Tubes containing aphids were dipped into insecticide solutions for 10 seconds, dried on blotting paper, and then inverted and tapped to cause treated aphids to fall to the unimmersed end of each tube. Handling mortality (usually zero or very slight) was scored after 1 hour, when aphids were transferred onto chinese cabbage leaf-discs (35 mm diameter) on an agar bed (25 mm in depth) in disposible plastic containers (30 mm high) and confined by applying a ring of fluon to the exposed lip of the container. Containers were stored upright, without lids, in a constant environment facility maintained at 25° C. under continuous room lighting. Mortality was assessed at 24, 48 and 72 hours. Two replicates of 15 aphids each were used at each dose rate and 5 or 6 dose rates were used per compound under test.
(§6) The values given are % mortality corrected for control data. The control comprised the test solution without active ingredient.

Myzus persicae [1] = test: Aphicidal activity, topical application; settings: 72 h; for mortality at 100 ppm: susceptible strain USIL, read-out: Topical aphid results, % kill M.P. USIL
Protocol: as §3
Batches of 10-15 apterous adults were removed from stock cultures and placed on leaf discs (35 mm in diameter) cut from chinese cabbage and held on an agar bed (25 mm deep) in disposable plastic containers (30 mm high). Using a Burkhard micro-applicator aphids were dosed individually with a 0.25 μm droplet of chemical diluted to the required concentration in acetone. control insects were dosed with acetone only. Mortality and other effects were scored at 24 hour intervals up to and including 72 hour post-treatment, the end-point to which the results relate.
(§7) The test was carried out using a susceptible strain of aphids (US1L) collected in the field in East Anglia, UK and an extremely resistant strain of aphids (794Jz) (R^3 esterase, sensitive ACHE) collected from glasshouses in the UK.
as §6

Myzus persicae [2] = test: Aphicidal activity, aphid-dip
Protocol: as §3, §4, §5, §7, §6

[3] = read-out: BT LC50 (comparative examples)
[4] = read-out: TU LC50 (comparative examples)
[5] = susceptible strain USIL, read-out: Aphid-dip result, % kill M.P. USIL
[6] = resistant strain 794JZ, read-out: Aphid-dip result, % kill M.P. 794JZ

Row | SMILES | MD (LD50) (Musca domestica) | LC50 (Tetranychus urticae; read-out: TU (GSS) (LC50)) | mortality at 100 ppm (Myzus persicae [1]) | mortality at 100 ppm (Myzus persicae [2]; [5]) | further results
1 | CCCC1=C(O)C(=O)c2ccccc2C1=O [--(CH2)2 CH3, reference compound] | – | – | – | – | LC50 (Bemisia tabaci; [3]): 80 µg/mL (≈ 370 µM)
2 | CCCCCCC1=C(O)C(=O)c2ccccc2C1=O [--(CH2)5 CH3, reference compound] | – | – | – | – | LC50 (Bemisia tabaci; [3]): 9.4 µg/mL (≈ 36.4 µM); LC50 (Tetranychus urticae; [4]): 170 µg/mL (≈ 658 µM)
3 | CCCCCCCCC1=C(O)C(=O)c2ccccc2C1=O [--(CH2)7 CH3, reference compound] | – | – | – | – | MD LD50 (comparative examples) (Musca domestica; Table 7): 1.9 μg/insect; PC LD50 (comparative examples) (Phaedon cochleariae Fab): 0.78 μg/insect
4 | CCCCCCCCCCC1=C(O)C(=O)c2ccccc2C1=O [--(CH2)9 CH3, reference compound] | – | – | – | – | PC LD50 (comparative examples) (Phaedon cochleariae Fab): 1.9 μg/insect
5 | CCCCCCCCCCCCC1=C(O)C(=O)c2ccccc2C1=O [--(CH2)11 CH3, reference compound] | – | – | – | – | LC50 (Bemisia tabaci; [3]): > 100 µg/mL; LC50 (Tetranychus urticae; [4]): < 60 µg/mL
6 | C[Si](C)(C)CCC1=C(OC(=O)c2ccccc2)C(=O)c2ccccc2C1=O [Example 1, 2-benzoyloxy-3-(2'-trimethylsilylethyl)-1,4-naphthoquinone] | > 20 μg/insect | 110 µg/mL (≈ 291 µM) | – | – | PC (LD50) (Phaedon cochleariae Fab): > 20 μg/insect
7 | C[Si](C)(C)CCCCCC1=C(O)C(=O)c2ccccc2C1=O [Example 3, 2-hydroxy-3(5'-trimethylsilylpentyl)-1,4-naphthoquinone] | 1.3 μg/insect | 2.8 µg/mL (≈ 8.85 µM) | 100% | 100% | mortality at 100 ppm (Aphis gossypiae): 100%; LC50 (Bemisia tabaci; read-out: BT (SUD-S) (LC50)): 6.8 µg/mL (≈ 21.5 µM)
8 | CC(=O)OC1=C(CC[Si](C)(C)C)C(=O)c2ccccc2C1=O [Example 4, 2-ethanoyloxy-3-(2'-trimethylsilylethyl)-1,4-naphthoquinone] | – | 45 µg/mL (≈ 142 µM) | – | 19% | LC50 (Bemisia tabaci; read-out: BT (SUD-S) (LC50)): 2.9 µg/mL (≈ 9.16 µM); mortality at 100 ppm (Myzus persicae [2]; [6]): 19%
9 | COC1(OC)C(O)=C(CC[Si](C)(C)C)C(=O)c2ccccc21 [Example 5, 2-hydroxy-3-(2'-trimethylsilylethyl)-1,4-naphthoquinone, 1-dimethyl acetal] | > 20 μg/insect | 41 µg/mL (≈ 128 µM) | – | – | PC (LD50) (Phaedon cochleariae Fab): ~20 μg/insect
10 | C[Si](C)(C)CC1=C(O)C(=O)c2ccccc2C1=O [Example 6] | – | – | – | – | LC50 (Bemisia tabaci; read-out: BT (SUD-S) (LC50)): 1.7 µg/mL (≈ 6.53 µM)
11 | C[Si](C)(C)CCCC1=C(O)C(=O)c2ccccc2C1=O [Example 7] | 4.4 μg/insect | 6.4 µg/mL (≈ 22.2 µM) | 45% | 90% | mortality at 100 ppm (Aphis gossypiae): 57%
12 | C[Si](C)(C)CCCCC1=C(O)C(=O)c2ccccc2C1=O [Example 8] | 1.8 μg/insect | 9.2 µg/mL (≈ 30.4 µM) | 90% | 90% | mortality at 1000 ppm (Myzus persicae [1]; resistant strain 794JZ, 1000 ppm, read-out: Topical aphid results, % kill M.P. 794JZ): 100%; mortality at 100 ppm (Myzus persicae [2]; [6]): 100%
13 | C[Si](C)(C)CCCCCCC1=C(O)C(=O)c2ccccc2C1=O [Example 9, 2-Hydroxy-3(6'-trimethylsilylhexyl)-1,4-naphthoquinone] | 1.8 μg/insect | 4.5 µg/mL (≈ 13.6 µM) | 100% | 100% | mortality at 100 ppm (Aphis gossypiae): 71%
